According to patent publication US10300000B2, “Inhibition of melanogenesis by chemically modified curcumins” (The Research Foundation for The State University of New York, priority 2016, dated 2019):

Tests used:
[1] = target: T1, cellular tyrosinase in B16F10 cells (Mus musculus, UniProt P11344); test: Intracellular tyrosinase activity in B16F10 cells; format: cell-based; conditions: B16F10 cells exposed for 48 hours; non-linear curve fitting; read-out: IC50-Cellular tyrosinase inhibition
T1 construct: endogenous in cells; host or cells: B16F10
T1 sequence (P11344 19-533): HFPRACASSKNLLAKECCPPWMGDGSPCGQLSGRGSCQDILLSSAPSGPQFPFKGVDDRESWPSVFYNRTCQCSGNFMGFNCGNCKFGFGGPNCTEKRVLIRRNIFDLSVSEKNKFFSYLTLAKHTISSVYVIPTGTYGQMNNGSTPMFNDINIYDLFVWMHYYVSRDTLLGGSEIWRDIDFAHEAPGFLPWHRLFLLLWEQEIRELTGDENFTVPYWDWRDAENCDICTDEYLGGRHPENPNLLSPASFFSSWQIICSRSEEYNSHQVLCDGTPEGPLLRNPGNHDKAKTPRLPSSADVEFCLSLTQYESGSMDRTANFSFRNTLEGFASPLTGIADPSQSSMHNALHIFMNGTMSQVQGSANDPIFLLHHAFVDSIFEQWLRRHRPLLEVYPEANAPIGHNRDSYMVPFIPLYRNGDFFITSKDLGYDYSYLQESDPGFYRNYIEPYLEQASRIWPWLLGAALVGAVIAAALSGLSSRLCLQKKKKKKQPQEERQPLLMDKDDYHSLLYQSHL
Protocol: We quantitated the cellular tyrosinase activity to delineate mechanism of melanogenesis inhibition by the compounds. Briefly, B16F10 cells were cultured in 24-well tissue culture plates at a density of 4×10^4 cells/well. After 24 hrs, media was changed and test compounds were added, and further incubated for 48 hrs. At the end of treatments, cells were trypsinized and cell pellets were washed in PBS and lysed with lysis buffer (containing 1% NP-40 to solubilize the normally membrane-bound enzyme and protease inhibitors) under ice for 20 minutes and then centrifuged to remove cellular debris. 50 μl of lysates were then aliquoted in 96-well microplate and 150 μl of 3 mM solution of freshly prepared L-DOPA in phosphate buffer, pH 6.8 was added. […] The % inhibition of tyrosinase activity was calculated by determining melanin formation rates from measurements of the linear regions of the slopes of melanin content as a function of time and comparing computed rates of melanin formation in the presence of the test compounds to those of the controls.

DPPH antioxidant assay = conditions: cell-free
Excerpt: Melanogenesis is often associated with higher oxidative stress and reactive oxygen species (ROS) generation. […] DPPH is a stable free radical which changes color from purple to yellow upon reduction by antioxidant compounds by electron donation; the color change can be measured spectrophotometrically. […] Briefly, 2,2-Diphenyl-1-picrylhydrazyl (DPPH) was freshly prepared in methanol and mixed with different concentrations of the compounds in triplicates in a 96 well plate. The Negative Control group consisted of DPPH only and Ascorbic Acid (AA) at 100 μg/ml was used as a positive control. The final DPPH concentration was 100 μM and final volume was 200 ul in the plate (20 μl samples with 180 μl of DPPH). The plate was covered and incubated for 30 minutes. Absorbance was read at 517 nm.

mushroom tyrosinase = test: Mushroom tyrosinase activity, cell-free, L-DOPA substrate; format: biochemical; conditions: all concentrations tested
Protocol: The direct effects of the compounds on tyrosinase enzyme activity were tested using mushroom tyrosinase enzyme with L-DOPA substrate. Briefly, 80 μl of all the 6 test compounds prepared at different concentrations in 50 mM sodium phosphate (pH 6.5) buffer was added to 96 wells followed by 100 μl of freshly prepared substrate solution (3 mM L-DOPA in buffer). The reaction was initiated by adding 20 μl of mushroom tyrosinase enzyme (final concentration of enzyme in wells was 3.5 μg/ml). The production of DOPAchrome was monitored by measuring the kinetics of absorbance increase at 475 nm (for 30 min every 30 seconds) at 30° C. using microplate reader (Versamax®). The slopes of the kinetic readings were calculated to determine and compare tyrosinase activity from control.

HaCaT cells = test: Phagocytosis assay using Fluosphere beads in keratinocytes; format: cell-based, human; conditions: beads 24 hours
Excerpt: The final steps of melanognesis in the skin involve transfer of melanin contained within matgure melanosomes from melanocytes to keratinocytes. In order to model melanosome uptake by keratinocytes in the presence of CMCs, we used uptake of fluosphere latex beads (0.5 μm, carboxylate-modified, Molecular Probes, Eugene, Oreg.) by a human keratinocyte cell line (HaCaT) as a model for melanosome uptake study; this model has been previously established [Cardinali G, et al. 2005; Cardinali, G. et al. 2008] to study phagocytosis by keratinocytes. HaCaT cells were cultured in 24 well plates (3.5×10^4 cells/well) for 48 hours and then media was replaced with fresh media containing CMCs (CMC2.14 at 10 μM, CMC2.5 at 20 μM, CMC2.23 at 20 μM and CMC2.24 at 20 μM). Control wells were treated with 0.1% DMSO. After 48 hours exposure, media was removed and wells were washed with PBS and Fluosphere bead solution was suspended in complete medium by sonication for 15 minutes was then diluted in complete medium before addition to the wells ([…]) and further incubation for 24 hours. After the treatment, wells were washed in PBS and extracellular fluorescence was quenched using trypan blue (0.1% in PBS); Fluorescence intensity over the entire bottom surface of each well was measured at excitation/emission of 580/605 using the “well-scan” mode with average of 21 points/well for triplicate wells in a Gemini EM fluorescence plate reader. Controls without any beads were used as blank for background subtraction and results are reported as RFU values expressed as % relative to control.

MITF = MITF protein levels by cell-based ELISA in B16F10 cells; parameters: species or system mouse; conditions: 48 hours
Protocol: MITF is the master regulator of melanogenesis and a known transcription factor for tyrosinase gene. The effects of PC and CMCs on micropthalmia transcription factor (MITF) proteins levels were assayed using a cell-based ELISA (LifeSpan Biosciences, Seattle). Briefly, B16F10 cells were cultured in a 96-well plate at 1×10^4 cells/well for 24 hours and then media was replaced with fresh media containing compounds in 0.1% DMSO for further 48 hours. The cells were then fixed and subsequent steps were conducted based on manufacturer instructions. The absorbance of MITF expression levels were normalized by absorbance of crystal violet stain (0.05%) and data was reported as % of control.

[2] = B16F10, 5 μM (printed 5 M for CMC2.23)
[3] = B16F10, 20 μM (printed 20 M for CMC2.5)

Compound | IC50 [1] [µM] | DPPH antioxidant activity (DPPH antioxidant assay) | inhibition of mushroom tyrosinase activity (mushroom tyrosinase) | inhibition of phagocytosis of Fluosphere beads (HaCaT cells; 20 μM pretreatment 48 hours) [%] | inhibition of MITF protein levels (MITF; [2]) | inhibition of MITF protein levels (MITF; B16F10, 10 μM) | inhibition of MITF protein levels (MITF; [3]) [%] | inhibition of phagocytosis of Fluosphere beads (HaCaT cells; 10 μM pretreatment 48 hours) [%] | inhibition of MITF protein levels (MITF; B16F10, tested concentrations 5-10 μM) | inhibition of MITF protein levels (MITF; B16F10, 25 μM) [%]
COC(=O)C(C(=O)C=Cc1ccc(O)c(OC)c1)C(=O)C=Cc1ccc(O)c(OC)c1 (stereo not shown) [CMC2.5, 4-methoxycarbonyl curcumin] | 50.7 | significant DPPH radical scavenging activity | moderate inhibition | 38.4 | did not show any suppression | did not show any suppression | 35 |  |  | 
COC(=O)C(C(=O)/C=C/c1ccc(O)cc1)C(=O)/C=C/c1ccc(O)cc1 [CMC2.14] | 4.69 | did not demonstrate potent antioxidant activity | moderate inhibition |  |  |  |  | 39.6 | did not show any significant reduction | 
COc1cc(/C=C/C(=O)C(C(=O)/C=C/c2ccc(O)c(OC)c2)C(=O)Nc2ccccc2)ccc1O [CMC2.23] | 13 | significant DPPH radical scavenging activity | moderate inhibition | 37.4 | 20% |  | 40 |  |  | 40
